Where two headings read alike, the source gives them in different places.

These results are taken from publication PMC5656713 (Advances in Therapy, 2017).

A short description of data set [1]: clinical. The settings on record: male, human, in vivo.
For data set [2] the following is noted: male, human, in vivo.
Data set [3] is described as follows: Safety and tolerability. In kind it is in vivo, human.
A short description of data set [4]: clinical. The settings on record: male, human, in vivo, 600 mg.
For data set [5] the following is noted: with concomitant ketoconazole 200 mg twice daily vs mifepristone 600 mg alone.
The conditions of data set [6]: cited from earlier work.
Data set [7] deals with glucocorticoid receptor. The settings on record: cited from earlier work.
For data set [8], the system named is serum cortisol. Nature of the data set: Fasting serum cortisol during mifepristone alone and plus ketoconazole. In kind it is in vivo, human. The settings on record: day 13, predose, after mifepristone 600 mg alone.
Data set [9] deals with plasma ACTH. In words: Fasting plasma ACTH during mifepristone alone and plus ketoconazole. In kind it is in vivo, human. The settings on record: day 13, predose, after mifepristone 600 mg alone.

By Tmax is commonly meant the time from dosing to the highest level. Broadly, the AUC(0-t) is the area under the concentration-time curve up to a stated or last time point. Lower therefore signals less exposure. Turning to `CC(=O)N1CCN(c2ccc(OCC3COC(Cn4ccnc4)(c4ccc(Cl)cc4Cl)O3)cc2)CC1` (stereo not drawn) [Ketoconazole], the time of peak concentration (Tmax) in data set [1] (200 mg) is 3 h. In data set [1] (AUC (AUC0–12) GLSM), this compound had an AUC(0-t) of 37700 ng·h/mL. Moreover, the “Mean predose trough concentrations” value in data set [2] is 1353.07 to 1615.64 ng/mL.

The term half-life denotes the time in which the quantity being followed falls by half. For `CC#C[C@]1(O)CC[C@H]2[C@@H]3CCC4=CC(=O)CCC4=C3[C@@H](c3ccc(N(C)C)cc3)C[C@@]21C` [Mifepristone], the “subjects with at least one treatment-emergent AE” value in data set [3] (coadministration of mifepristone and ketoconazole (period 2), 8/14) turned out to be 57.1%; in data set [3] (mifepristone alone (period 1), 9/16), 56.3%. For the same compound, the “serious AEs” value in data set [3] (whole study, mifepristone alone and plus ketoconazole) is listed as “No serious AEs”. The half-life in [4] was above 64 h; in data set [6] it was ~ 85 h. Besides, the “increase in systemic exposure based on GMR, AUC0–24” value in data set [5] worked out at 38%. For the same compound, in data set [7], the “affinity to the glucocorticoid receptor compared with 100% for mifepristone” value is reported as 100%. The Mean serum cortisol in [8] came to 41.9 µg/dL. Moreover, in data set [9], the “Mean ACTH” value is 148 pg/mL.
